Data published in article PMC11430712, “The Endocannabinoid Peptide RVD-Hemopressin Is a TRPV1 Channel Blocker” (Biomolecules, 2024).

Columns and labels:
[1] = target: T1, human TRPV1 channel (Homo sapiens, UniProt Q8NER1); assay: Calcium imaging (Fura Red-AM), HEK293 cells transfected with hTRPV1-GFP; format: cell-based; conditions: 1 µM Cap; hTRPV1-GFP HEK293; pH 7.4, room temperature; n: 58; vs DMSO **** p < 0.0001
T1 construct: host or cells: HEK293
Procedure: (§1) Dr. Alejandro Maureira, Universidad Católica del Maule, Chile, generously provided HEK293 cells. The cells were cultured in T75 flasks (Corning Inc., Corning, NY, USA) in a humidified atmosphere at 37 °C with 5% CO2 in Dulbecco’s Modified Eagle Medium (DMEM) with high glucose (Cytiva, Marlborough, MA, USA), supplemented with 10% fetal bovine serum (Cytiva, Marlborough, MA, USA) and a mixture of 100 IU/mL penicillin and 100 µg/mL streptomycin (Corning Inc., Corning, NY, USA) in a CO2CELL incubator (MMM Group, Munich, Germany). This procedure was used to maintain the cells for all of the experiments.
(§2) HEK293 cells were transfected with the human TRPV1 channel coupled to GFP in its C-terminus (TRPV1-GFP, catalog #: RG217653, Origene, Rockville, MD, USA). […] Transfections were conducted using Lipofectamine 3000 (Invitrogen, Waltham, MA, USA), according to the manufacturer’s instructions. Experimental protocols were performed 24 h post-transfection.
(§3) The data were analyzed and plotted using GraphPad software v10.0.2. We used the Shapiro–Wilk test to determine the data distribution. […] Statistically significant values were considered when p values were * p < 0.05, ** p < 0.01, *** p < 0.001, and **** p < 0.0001.

[2] = tested on: HEK293-untransfected cells; assay: Calcium imaging (Fura Red-AM), untransfected HEK293 cells; format: cell-based; conditions: 1 µM Cap, confocal, pH 7.4, room temperature, n: 26
Procedure: Dr. Alejandro Maureira, Universidad Católica del Maule, Chile, generously provided HEK293 cells. The cells were cultured in T75 flasks (Corning Inc., Corning, NY, USA) in a humidified atmosphere at 37 °C with 5% CO2 in Dulbecco's Modified Eagle Medium (DMEM) with high glucose (Cytiva, Marlborough, MA, USA), supplemented with 10% fetal bovine serum (Cytiva, Marlborough, MA, USA) and a mixture of 100 IU/mL penicillin and 100 μg/mL streptomycin (Corning Inc., Corning, NY, USA) in a CO2CELL incubator (MMM Group, Munich, Germany). This procedure was used to maintain the cells for all of the experiments. […] Then, the cells were washed and cultured during the experiment with the extracellular solution containing (in mM) 140 NaCl, 5 KCl, 2 CaCl2, 1 MgCl2, 10 HEPES, and 6 glucose, with pH adjusted to 7.4 with NaOH [13]. Calcium images were obtained every 3 s for 30 min using Leica Stellaris 5 spectral confocal microscopy. […] Fura Red emissions in bound and unbound states were acquired around their peaks at 610 nm and 670 nm, respectively. The bound and unbound fluorescence of Fura Red-AM was acquired using Leica LAS X v.4.3.0.24308 software. The Fura Red-Am bound and unbound ratio was calculated (405 nm/488 nm) and plotted. […] The data were analyzed and plotted using GraphPad software v10.0.2. […]

[3] = target: T1, human TRPV1 channel; assay: Whole-cell voltage-clamp recording of TRPV1 currents, HEK293 cells with human TRPV1-GFP; format: cell-based; conditions: 1 µM Cap; voltage ramp -80 to 80 mV, +80 mV; n: 7; **** p < 0.0001; room temperature
Procedure: as §1, §2
Untransfected and transfected HEK293 cells with the human TRPV1-GFP were recorded using a whole-cell voltage clamp. Cells were cultured in 15 mm round coverslips pretreated with 0.1 mg/mL poly-L-lysine (Gibco, Billings, MT, USA) and transfected with TRPV1-GFP plasmid. TRPV1-GFP-positive cells were identified using a 405 nm LED light in a Nikon Eclipse Ts2 inverted microscope. Borosilicate pipettes (nº 1B150F-4, World Precision Instruments, Sarasota, FL, USA) of 2.8’5 MΩ were used. Pipettes were pulled with a P-97 Micropipette Puller (Sutter Instruments, Novato, CA, USA). The extracellular solution contained (in mM) 140 NaCl, 5 KCl, 2 CaCl2, 1 MgCl2, 10 HEPES, and 6 glucose at pH 7.4. The internal solution contained (in mM) 140 CsCl, 4 MgCl2, 10 EGTA, and 10 HEPES-CsOH at pH 7.3. All the experiments were recorded using a HEKA EPC9 amplifier. The holding potential was −80 mV. A 500 ms voltage ramp from −80 to 80 mV was applied to record TRPV1 currents. The sample frequency was 50 kHz, and the signals were filtered at 2.9 kHz using PatchMaster software. Data were analyzed using Clampfit v.7 software (Molecular Devices, San Jose, CA, USA). The extracellular solution and ligands were administered using a VC-8 perfusion system (~2 mL/s, Warner Instruments, Holliston, MA, USA). We used capsaicin (Cayman Chemicals, nº 92350), SB366791 (nº 11019, Cayman Chemicals, Ann Arbor, MI, USA), and RVD-Hp (Synbio Technologies, Monmouth Junction, NJ, USA). We used dimethyl sulfoxide (DMSO, Sigma-Aldrich, St. Louis, MO, USA) and untransfected cells as controls. Electrophysiological recordings were performed at room temperature.
as §3

[4] = tested on: untransfected HEK293 cells; assay: Whole-cell voltage-clamp recording, untransfected HEK293 cells; format: cell-based; conditions: 1 µM Cap; voltage ramp -80 to 80 mV; room temperature
Procedure: as §1
Untransfected and transfected HEK293 cells with the human TRPV1-GFP were recorded using a whole-cell voltage clamp. Cells were cultured in 15 mm round coverslips pretreated with 0.1 mg/mL poly-L-lysine (Gibco, Billings, MT, USA) and transfected with TRPV1-GFP plasmid. TRPV1-GFP-positive cells were identified using a 405 nm LED light in a Nikon Eclipse Ts2 inverted microscope. Borosilicate pipettes (nº 1B150F-4, World Precision Instruments, Sarasota, FL, USA) of 2.8’5 MΩ were used. Pipettes were pulled with a P-97 Micropipette Puller (Sutter Instruments, Novato, CA, USA). […] All the experiments were recorded using a HEKA EPC9 amplifier. […] Data were analyzed using Clampfit v.7 software (Molecular Devices, San Jose, CA, USA). […]
The data were analyzed and plotted using GraphPad software v10.0.2. […]

[5] = tested on: TRPV1 channel; parameters: method as in 4 sources, ref [12]; anandamide and 2-AG ref [13],[14],[15],[16] ||| ref [88],[89] = [88]; PMID 27281200; doi:10.1038/nature17964; 88. Gao Y. Cao E. Julius D. Cheng Y. TRPV1 structures in nanodiscs reveal mechanisms of ligand and lipid action Nature 2016 534 347 351 10.1038/nature17964 27281200 PMC4911334 || [89]; PMID 37117175; doi:10.1038/s41467-023-38162-9; 89. Neuberger A. Oda M. Nikolaev Y.A. Nadezhdin K.D. Gracheva E.O. Bagriantsev S.N. Sobolevsky A.I. Human TRPV1 structure and inhibition by the analgesic SB-366791 Nat. Commun. 2023 14 2451 10.1038/s4 ||| ref [90] = [90]; PMID 38698206; doi:10.1038/s41594-024-01299-2; 90. Arnold W.R. Mancino A. Moss F.R. Frost A. Julius D. Cheng Y. Structural basis of TRPV1 modulation by endogenous bioactive lipids Nat. Struct. Mol. Biol. 2024 1 9 10.1038/s41594-024-01299-2 3869820 ||| ref [67] = [67]; PMID 29117570; doi:10.1016/j.celrep.2017.10.063; 67. Nersesyan Y. Demirkhanyan L. Cabezas-Bratesco D. Oakes V. Kusuda R. Dawson T. Sun X. Cao C. Cohen A.M. Chelluboina B. Oxytocin Modulates Nociception as an Agonist of Pain-Sensing TRPV1 Cell Rep. 2; conditions: cited from earlier work
Excerpt: The transient receptor potential (TRP) channels family involves several subfamilies, including the vanilloid (TRPVs) group. TRPV1, a member of the TRPV subfamily, is a non-selective cationic homotetramer channel. It is known to be activated by various stimuli, including temperature, capsaicin (the principal compound in chili peppers), and endocannabinoids such as anandamide (AEA) and 2-arachidonoylglycerol (2-AG). The TRPV1 channel protein is found in the central (CNS) and peripheral nervous system (PNS). In the CNS, TRPV1 is expressed in the prefrontal cort ... || Molecular dynamics (MD) simulations allow studying protein dynamics at an atomic level under physiological conditions, enhancing our understanding of various proteins, including ion channels like TRPV1 [82]. These simulations provide insight into their function, conformational changes, and interactions with different ligands.

[6] = cited from earlier work
Excerpt: Capsaicin creams and patches have been used in the treatment of muscle pain, neuropathic pain, arthritis, and migraines. […] CNTX-4975 has been developed as a treatment option for pain in individuals with osteoarthritis.

[7] = tested on: thermal hyperalgesia; conditions: capsazepine administration; ref [12],[32],[33],[34]; cited from earlier work

T1 sequence (Q8NER1 whole entry): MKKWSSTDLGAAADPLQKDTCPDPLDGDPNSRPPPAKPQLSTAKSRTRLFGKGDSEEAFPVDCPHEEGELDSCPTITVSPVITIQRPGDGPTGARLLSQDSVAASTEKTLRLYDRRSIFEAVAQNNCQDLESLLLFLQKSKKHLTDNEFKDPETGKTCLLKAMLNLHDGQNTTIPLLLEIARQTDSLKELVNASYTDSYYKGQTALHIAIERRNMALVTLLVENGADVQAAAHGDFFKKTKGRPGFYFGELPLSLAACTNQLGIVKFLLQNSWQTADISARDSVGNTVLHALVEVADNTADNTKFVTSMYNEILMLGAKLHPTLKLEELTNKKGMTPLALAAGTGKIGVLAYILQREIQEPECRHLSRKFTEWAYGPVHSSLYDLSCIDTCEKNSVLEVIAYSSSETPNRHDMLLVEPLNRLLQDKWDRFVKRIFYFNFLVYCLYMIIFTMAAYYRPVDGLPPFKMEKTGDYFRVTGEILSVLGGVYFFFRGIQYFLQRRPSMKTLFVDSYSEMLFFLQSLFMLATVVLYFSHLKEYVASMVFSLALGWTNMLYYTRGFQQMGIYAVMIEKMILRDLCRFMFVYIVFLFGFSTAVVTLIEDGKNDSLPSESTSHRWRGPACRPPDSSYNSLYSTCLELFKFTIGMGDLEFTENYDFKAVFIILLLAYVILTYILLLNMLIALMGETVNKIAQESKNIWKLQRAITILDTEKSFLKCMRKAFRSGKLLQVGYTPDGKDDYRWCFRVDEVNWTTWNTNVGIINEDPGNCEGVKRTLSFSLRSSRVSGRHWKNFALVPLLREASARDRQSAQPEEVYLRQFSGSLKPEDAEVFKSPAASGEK

For `COc1cc(CNC(=O)CCCC/C=C/C(C)C)ccc1O` [capsaicin], the “Intracellular Ca^2+ concentration (Fura Red ratio 405 nm/488 nm), agonist response” value [1] was “produced an increase in intracellular Ca^2+ concentration”, the “Intracellular Ca^2+ concentration (Fura Red ratio 405 nm/488 nm) in untransfected cells” value [2] was “did not induce an increase in intracellular Ca^2+ concentration” and the “Cap-induced TRPV1 currents” value [3] was “showed Cap-induced currents”. The “TRPV1 currents in untransfected cells” value [4] was “did not observe TRPV1 currents”, the TRPV1 activation ([5]; capsaicin ref [12], anandamide and 2-AG ref [13],[14],[15],[16]) was “activated” and the “Efficacy and bioavailability in vivo” value [6] was “limited efficacy and bioavailability in vivo”. The Water solubility [6] was “poor water solubility” and the Side effects ([6]; oral administration, ref [98]) was “irritation, orofacial pain, and gastric ulcers”.
In the case of `Oc1cc2c(cc1O)CN(C(=S)NCCc1ccc(Cl)cc1)CCC2` [capsazepine], the “TRPV1 binding mode of antagonists” value ([5]; requiring four molecules to induce channel closure, ref [88],[89]) is given as “bind to the vanilloid pocket and compete with capsaicin” and the Thermal hyperalgesia [7] is given as “reduces thermal hyperalgesia”.
